Source: patent US5760027A, “Use of 7-alkylidene cephalosporins to inhibit elastase activity” (Research Corporation Technologies, Inc., priority 1996, dated 1998)

Columns and labels:
Format in all cases: biochemical
[1] = target: T1, human leukocyte elastase (HLE) (Homo sapiens, UniProt P08246); assay: IC50 determination, inhibition of human leukocyte elastase (HLE), hydrolysis of N-(methoxysuccinyl)-L-alanyl-L-alanyl-L-prolyl-L-valine 4-nitroanilide at 410 nm; details: 5 min incubation with the inhibitor; pH 7.5 Tris buffer
T1 construct: purchased Elastin Products Company, Inc. (Owensville, Mo.)
T1 sequence (P08246 30-267): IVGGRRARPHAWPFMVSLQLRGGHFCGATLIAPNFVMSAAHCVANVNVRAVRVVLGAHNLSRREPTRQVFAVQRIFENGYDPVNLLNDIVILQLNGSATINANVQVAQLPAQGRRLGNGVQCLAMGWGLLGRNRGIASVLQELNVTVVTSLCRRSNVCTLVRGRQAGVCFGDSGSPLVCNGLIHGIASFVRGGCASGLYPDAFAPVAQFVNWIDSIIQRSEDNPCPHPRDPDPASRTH

[2] = target: porcine pancreatic elastase (PPE) (Sus scrofa, UniProt P00772); assay: IC50 determination, inhibition of porcine pancreatic elastase (PPE); details: 5 min incubation with the inhibitor
Sequence of porcine pancreatic elastase (PPE) (P00772 27-266): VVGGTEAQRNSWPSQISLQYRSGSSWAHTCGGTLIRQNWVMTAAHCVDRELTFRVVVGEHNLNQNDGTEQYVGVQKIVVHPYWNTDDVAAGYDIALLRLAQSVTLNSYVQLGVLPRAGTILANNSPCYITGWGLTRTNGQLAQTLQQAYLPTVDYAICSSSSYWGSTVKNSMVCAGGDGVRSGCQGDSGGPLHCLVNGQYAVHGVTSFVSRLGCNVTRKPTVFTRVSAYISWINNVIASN

HLE = target: T2, HLE (Homo sapiens, UniProt P08246); assay: inhibition of HLE followed as a function of time (FIG. 1); details: 10-fold molar excess of inhibitor, assayed at regular intervals (2 to 5 minutes)
T2 construct: chromogenic substrate MeOSuc-AAPV-pNA
T2 sequence (P08246 30-267): T1 sequence (P08246 30-267)
Method: To further document the rapid, irreversible inhibition of this enzyme at low, nearly stoichiometric ratios of inhibitor to enzyme, for selected compounds, this inhibition was followed as a function of time.
The data in FIG. 1 were generated by incubating the enzyme with a 10-fold molar excess of inhibitor. Assays of residual enzymatic activity of this mixture were assayed at regular intervals (2 to 5 minutes).

SMILES | IC50 [1] | IC50 [2] | residual HLE activity / inhibition as a function of time (HLE)
CO[C@H]1C(=O)N2C(C(=O)OC(c3ccccc3)c3ccccc3)=C(COC(C)=O)CS[C@H]12 [Compound 36, reference compound] | 5.35 µM | – | –
COC(=O)/C=C1/C(=O)N2C(C(=O)OC(c3ccccc3)c3ccccc3)=C(COC(C)=O)CS[C@H]12 [Compound 24, Benzhydryl 7-[(Z)-methoxycarbonylmethylene]cephalosporanate] | 2.6 µM | > 10 µM | very potent, irreversible inhibitors of HLE
CC(=O)OCC1=C(C(=O)OC(c2ccccc2)c2ccccc2)N2C(=O)C(=C(Cl)Cl)[C@H]2SC1 [Compound 22, Benzhydryl 7-[dichloromethylene]cephalosporanate] | 6.41 µM | > 10 µM | very potent, irreversible inhibitors of HLE
CC(=O)OCC1=C(C(=O)OC(c2ccccc2)c2ccccc2)N2C(=O)/C(=C/c3ccccn3)[C@H]2S(=O)(=O)C1 [Compound 21, Benzhydryl 7-[(Z)-(2'-pyridyl)methylene]cephalosporanate sulfone] | > 10 µM | > 10 µM | –
CON(C)C(=O)/C=C1/C(=O)N2C(C(=O)OC(c3ccccc3)c3ccccc3)=C(COC(C)=O)CS(=O)(=O)[C@H]12 [Compound 27, Benzhydryl 7-[(Z)-N-methoxy-N-methylaminocarbonylmethylene]cephalosporanatesulfone] | > 10 µM | > 10 µM | –
C=C=C1C(=O)N2C(C(=O)OC(c3ccccc3)c3ccccc3)=C(COC(C)=O)CS[C@H]12 [Compound 7, Benzhydryl 7-vinylidenecephalosporanate] | 9 µM | 0.67 µM | –
CO[C@H]1C(=O)N2C(C(=O)OC(c3ccccc3)c3ccccc3)=C(COC(C)=O)CS(=O)(=O)[C@H]12 [Compound 37, reference compound] | 0.28 µM | – | –
[2H]C(=C=C1C(=O)N2C(C(=O)OC(c3ccccc3)c3ccccc3)=C(COC(C)=O)CS(=O)(=O)[C@H]12)C(C)(C)C [Compound 5b] | 13.5 µM | – | –
COC(=O)/C(Br)=C1/C(=O)N2C(C(=O)OC(c3ccccc3)c3ccccc3)=C(COC(C)=O)CS[C@H]12 [Compound 32, Benzhydryl 7-{[(E)-bromo-(Z)-methoxycarbonyl]methylidene} cephalosporanate] | 0.21 µM | – | –
CC(=O)OCC1=C(C(=O)OC(c2ccccc2)c2ccccc2)N2C(=O)C(=C=CC(C)(C)C)[C@H]2S(=O)(=O)C1 [Compound 5a, Benzhydryl 7-t-butylvinylidene cephalosporanate sulfone] | 10.5 µM | > 10 µM | –
CC(=O)OCC1=C(C(=O)OC(c2ccccc2)c2ccccc2)N2C(=O)/C(=C/C(=O)OC(C)(C)C)[C@H]2S(=O)(=O)C1 [Compound 18, Benzhydryl 7-[(Z)-(t-butoxycarbonyl)methylene]-cephalosporanate sulfone] | 7.1 µM | > 10 µM | –
CC(=O)OCC1=C(C(=O)OC(c2ccccc2)c2ccccc2)N2C(=O)C(=C(Br)Br)[C@H]2S(=O)(=O)C1 [Compound 14, Benzhydryl 7-[dibromomethylene]cephalosporanate sulfone] | 2.07 µM | 4.8 µM | very potent, irreversible inhibitors of HLE
CC(=O)OCC1=C(C(=O)OC(c2ccccc2)c2ccccc2)N2C(=O)C(=O)[C@H]2SC1 [Compound 2, Benzhydryl 7-oxocephalosporanate] | > 10 µM | > 10 µM | –
CC(=O)/C=C1/C(=O)N2C(C(=O)OC(c3ccccc3)c3ccccc3)=C(COC(C)=O)CS[C@H]12 [Compound 28, Benzhydryl 7-[(Z)-acetylmethylene]cephalosporanate] | 4.27 µM | > 10 µM | leveling off and allowing the enzyme to regain its activity
CC(=O)OCC1=C(C(=O)OC(c2ccccc2)c2ccccc2)N2C(=O)C(=C(Br)Br)[C@H]2SC1 [Compound 13, Benzhydryl 7-[dibromomethylene]cephalosporanate] | 0.26 µM | 6.42 µM | extremely rapid and efficient inhibitor of HLE
CC(=O)OCC1=C(C(=O)OC(c2ccccc2)c2ccccc2)N2C(=O)/C(=C/C(=O)OC(C)(C)C)[C@H]2SC1 [Compound 17, Benzhydryl 7-[(Z)-t-butoxycarbonylmethylene]cephalosporanate] | > 10 µM | – | –
CC(=O)OCC1=C(C(=O)OC(c2ccccc2)c2ccccc2)N2C(=O)C[C@H]2SC1 [Compound 33, reference compound] | > 10 µM | > 10 µM | –
CC(=O)OCC1=C(C(=O)OC(c2ccccc2)c2ccccc2)N2C(=O)/C(=C\c3ccccc3)[C@H]2SC1 [Compound 11, Benzhydryl 7-[(E)-benzylidene]cephalosporanate] | > 10 µM | > 10 µM | –

SMILES | IC50 [1] | IC50 [2] | residual HLE activity / inhibition as a function of time (HLE)
C=C=C1C(=O)N2C(C(=O)OC(c3ccccc3)c3ccccc3)=C(COC(C)=O)CS(=O)(=O)[C@H]12 [Compound 8, Benzhydryl 7-vinylidenecephalosporanate sulfone] | 6.1 µM | 4.1 µM | –
CC(=O)OCC1=C(C(=O)OC(c2ccccc2)c2ccccc2)N2C(=O)/C(=C\Br)[C@H]2S(=O)(=O)C1 [Compound 16, Benzhydryl 7-[(E)-bromomethylene]cephalosporanate sulfone] | 3.36 µM | 2.49 µM | leveling off and allowing the enzyme to regain its activity
COC(=O)/C=C1/C(=O)N2C(C(=O)OC(c3ccccc3)c3ccccc3)=C(COC(C)=O)CS(=O)(=O)[C@H]12 [Compound 25, Benzhydryl 7-[(Z)-(methoxycarbonyl)methylene]cephalosporanate sulfone] | 8.9 µM | > 10 µM | –
CC(=O)OCC1=C(C(=O)OC(c2ccccc2)c2ccccc2)N2C(=O)/C(=C\Br)[C@H]2SC1 [Compound 15, Benzhydryl 7-[(E)-bromomethylene]cephalosporanate] | 0.39 µM | 9.6 µM | very potent, irreversible inhibitors of HLE
CC(=O)OCC1=C(C(=O)OC(c2ccccc2)c2ccccc2)N2C(=O)/C(=C/C=O)[C@H]2SC1 [Compound 19, Benzhydryl 7-[(Z)-formylmethylene]cephalosporanate] | 13.9 µM | 5.2 µM | –
CC(=O)OCC1=C(C(=O)OC(c2ccccc2)c2ccccc2)N2C(=O)/C(=C/C#N)[C@H]2S(=O)(=O)C1 [Compound 31, Benzhydryl 7-[(Z)-cyanomethylene]cephalosporanate sulfone] | 0.49 µM | – | –
CC(=O)OCC1=C(C(=O)OC(c2ccccc2)c2ccccc2)N2C(=O)C(=C=CC(C)(C)C)[C@H]2SC1 [Compound 4, Benzhydryl 7-(t-butylvinylidene)cephalosporanate] | > 10 µM | 5.5 µM | –
CC(=O)OCC1=C(C(=O)OC(c2ccccc2)c2ccccc2)N2C(=O)[C@@H](N)[C@H]2SC1 [Compound 1, Benzhydryl 7β-aminocephalosporanate] | > 10 µM | > 10 µM | –
CC(=O)/C=C1/C(=O)N2C(C(=O)OC(c3ccccc3)c3ccccc3)=C(COC(C)=O)CS(=O)(=O)[C@H]12 [Compound 29, Benzhydryl 7-[(Z)-acetylmethylene]cephalosporanate sulfone] | > 10 µM | 6 µM | –
CC(=O)OCC1=C(C(=O)OC(c2ccccc2)c2ccccc2)N2C(=O)/C(=C/c3ccccc3)[C@H]2SC1 [Compound 9, benzhydryl 7-[(Z)-benzylidene] cephalosporanate] | > 10 µM | > 10 µM | –
CC(=O)OCC1=C(C(=O)OC(c2ccccc2)c2ccccc2)N2C(=O)C(=C(Cl)Cl)[C@H]2S(=O)(=O)C1 [Compound 23, Benzhydryl 7-[dichloromethylene]cephalosporanate sulfone] | 2.56 µM | > 10 µM | –
CC(=O)OCC1=C(C(=O)OC(c2ccccc2)c2ccccc2)N2C(=O)/C(=C/c3ccccn3)[C@H]2SC1 [Compound 20, Benzhydryl 7-[(Z)-(2'-pyridyl)methylene]cephalosporanate] | > 10 µM | > 10 µM | –
CC(=O)OCC1=C(C(=O)OC(c2ccccc2)c2ccccc2)N2C(=O)/C(=C/c3ccccc3)[C@H]2S(=O)(=O)C1 [Compound 10, Benzhydryl 7-[(Z)-benzylidene]cephalosporanate sulfone] | 8.9 µM | > 10 µM | –
CC(=O)OCC1=C(C(=O)OC(c2ccccc2)c2ccccc2)N2C(=O)/C(=C\c3ccccc3)[C@H]2S(=O)(=O)C1 [Compound 12, Benzhydryl 7-[(E)-benzylidene]cephalosporanate sulfone] | 6 µM | > 10 µM | –
CC(=O)OCC1=C(C(=O)OC(c2ccccc2)c2ccccc2)N2C(=O)C(=C=CBr)[C@H]2SC1 [Compound 6, Benzhydryl 7-(-bromovinylidene)cephalosporanate] | 5.4 µM | > 10 µM | –
CC(=O)OCC1=C(C(=O)OC(c2ccccc2)c2ccccc2)N2C(=O)/C(=C/C#N)[C@H]2SC1 [Compound 30, Benzhydryl 7-[(Z)-cyanomethylene]cephalosporanate] | > 10 µM | – | –
CC(=O)OCC1=C(C(=O)OC(c2ccccc2)c2ccccc2)N2C(=O)/C(=C/CO)[C@H]2SC1 [Compound 26, Benzhydryl 7-[(Z)-(hydroxymethyl)methylene]cephalosporanate] | > 10 µM | > 10 µM | –
